Test results as given in ChEMBL document CHEMBL2413072, “Synthesis and in vitro anticancer studies of novel C-2 arylidene congeners of lantadenes” (2013).

What was measured:
Format in all cases: functional
SK-OV-3 [1] = test: Growth inhibition of human SKOV3 cells assessed as cell growth at 10^-4 M by sulforhodamine B assay; conditions: read-out: Activity
OVCAR-3 = test: Growth inhibition of human OVCAR3 cells assessed as cell growth at 10^-4 M by sulforhodamine B assay; conditions: read-out: Activity
TK-10 = test: Growth inhibition of human TK10 cells assessed as cell growth at 10^-6 M by sulforhodamine B assay; conditions: read-out: Activity
HCT-116 [2] = test: Growth inhibition of human HCT116 cells assessed as cell growth at 10^-7 M by sulforhodamine B assay; conditions: read-out: Activity
NCI-H460 = test: Growth inhibition of human NCI-H460 cells by sulforhodamine B assay
M14 = test: Growth inhibition of human M14 cells assessed as cell growth at 10^-4 M by sulforhodamine B assay; conditions: read-out: Activity
NCI-H522 [3] = test: Growth inhibition of human NCI-H522 cells by sulforhodamine B assay
OVCAR-8 [4] = test: Growth inhibition of human OVCAR8 cells assessed as cell growth at 10^-8 M by sulforhodamine B assay; conditions: read-out: Activity
T47D = test: Growth inhibition of human T47D cells assessed as cell growth at 10^-4 M by sulforhodamine B assay; conditions: read-out: Activity
IGROV-1 = test: Growth inhibition of human IGROV1 cells by sulforhodamine B assay
HL-60(TB) = test: Growth inhibition of human HL-60(TB) cells assessed as cell growth at 10^-6 M by sulforhodamine B assay; conditions: read-out: Activity
OVCAR-8 [5] = test: Growth inhibition of human OVCAR8 cells assessed as cell growth at 10^-7 M by sulforhodamine B assay; conditions: read-out: Activity
HT-29 = test: Growth inhibition of human HT-29 cells assessed as cell growth at 10^-7 M by sulforhodamine B assay; conditions: read-out: Activity
ACHN = test: Growth inhibition of human ACHN cells assessed as cell growth at 10^-6 M by sulforhodamine B assay; conditions: read-out: Activity
NCI-H522 [6] = test: Growth inhibition of human NCI-H522 cells assessed as cell growth at 10^-4 M by sulforhodamine B assay; conditions: read-out: Activity
SNB-75 [7] = test: Growth inhibition of human SNB75 cells assessed as cell growth at 10^-8 M by sulforhodamine B assay; conditions: read-out: Activity
SR = test: Growth inhibition of human SR cells assessed as cell growth at 10^-7 M by sulforhodamine B assay; conditions: read-out: Activity
MCF7 [8] = test: Growth inhibition of human MCF7 cells assessed as cell growth at 10^-6 M by sulforhodamine B assay; conditions: read-out: Activity
KM12 = test: Growth inhibition of human KM12 cells assessed as cell growth at 10^-8 M by sulforhodamine B assay; conditions: read-out: Activity
NCI-H226 = test: Growth inhibition of human NCI-H226 cells assessed as cell growth at 10^-6 M by sulforhodamine B assay; conditions: read-out: Activity
SN12C = test: Growth inhibition of human SN12C cells assessed as cell growth at 10^-7 M by sulforhodamine B assay; conditions: read-out: Activity
Malme-3M = test: Growth inhibition of human MALME-3M cells assessed as cell growth at 10^-7 M by sulforhodamine B assay; conditions: read-out: Activity
OVCAR-5 = test: Growth inhibition of human OVCAR5 cells assessed as cell growth at 10^-4 M by sulforhodamine B assay; conditions: read-out: Activity
SNB-19 = test: Growth inhibition of human SNB19 cells by sulforhodamine B assay
CAKI-1 = test: Growth inhibition of human CAKI-1 cells assessed as cell growth at 10^-7 M by sulforhodamine B assay; conditions: read-out: Activity
HCT-116 [9] = test: Growth inhibition of human HCT116 cells assessed as cell growth at 10^-8 M by sulforhodamine B assay; conditions: read-out: Activity
RXF 393 = test: Growth inhibition of human RXF393 cells assessed as cell growth at 10^-4 M by sulforhodamine B assay; conditions: read-out: Activity
[10] = Growth inhibition of human Hs 578T cells assessed as cell growth at 10^-4 M by sulforhodamine B assay; conditions: read-out: Activity
UO-31 = test: Growth inhibition of human UO31 cells assessed as cell growth at 10^-4 M by sulforhodamine B assay; conditions: read-out: Activity
SK-OV-3 [11] = test: Growth inhibition of human SKOV3 cells assessed as cell growth at 10^-6 M by sulforhodamine B assay; conditions: read-out: Activity
SK-MEL-2 = test: Growth inhibition of human SK-MEL-2 cells assessed as cell growth at 10^-7 M by sulforhodamine B assay; conditions: read-out: Activity
UACC-62 = test: Growth inhibition of human UACC62 cells by sulforhodamine B assay
SNB-75 [12] = test: Growth inhibition of human SNB75 cells assessed as cell growth at 10^-7 M by sulforhodamine B assay; conditions: read-out: Activity
OVCAR-8 [13] = test: Growth inhibition of human OVCAR8 cells assessed as cell growth at 10^-4 M by sulforhodamine B assay; conditions: read-out: Activity
LOX IMVI [14] = test: Growth inhibition of human LOXIMVI cells assessed as cell growth at 10^-6 M by sulforhodamine B assay; conditions: read-out: Activity
HCT-116 [15] = test: Growth inhibition of human HCT116 cells assessed as cell growth at 10^-4 M by sulforhodamine B assay; conditions: read-out: Activity
K562 = test: Growth inhibition of human K562 cells assessed as cell growth at 10^-4 M by sulforhodamine B assay; conditions: read-out: Activity
OVCAR-8 [16] = test: Growth inhibition of human OVCAR8 cells by sulforhodamine B assay
HOP-62 = test: Growth inhibition of human HOP62 cells assessed as cell growth at 10^-4 M by sulforhodamine B assay; conditions: read-out: Activity
LOX IMVI [17] = test: Growth inhibition of human LOXIMVI cells assessed as cell growth at 10^-8 M by sulforhodamine B assay; conditions: read-out: Activity
MCF7 [18] = test: Growth inhibition of human MCF7 cells assessed as cell growth at 10^-4 M by sulforhodamine B assay; conditions: read-out: Activity
CCRF-CEM = test: Growth inhibition of human CCRF-CEM cells assessed as cell growth at 10^-7 M by sulforhodamine B assay; conditions: read-out: Activity
MDA-MB-435 = test: Growth inhibition of human MDA-MB-435 cells assessed as cell growth at 10^-6 M by sulforhodamine B assay; conditions: read-out: Activity
[19] = read-out: LC50 (the source's name)
[20] = read-out: pLC50 (the source's name) (converted)

CC1(C)C[C@@H](O)[C@]2(C(=O)O)CC[C@]3(C)C(=CC[C@@H]4[C@@]5(C)C/C(=C\C=C\c6ccccc6)C(=O)C(C)(C)[C@@H]5CC[C@]43C)[C@@H]2C1
growth at 100 µM (SK-OV-3 [1]): -84%
growth at 100 µM (OVCAR-3): -90%
growth at 1 µM (TK-10): 102%
growth at 0.1 µM (HCT-116 [2]): 99%
GI50 (NCI-H460; read-out: GI50): 2.67 µM
LC50 (NCI-H460; read-out: LC50): 44.1 µM
TGI (NCI-H460; read-out: TGI): 7.6 µM
GI50 (NCI-H460; read-out: pGI50 (converted)): 2.69 µM
LC50 (NCI-H460; read-out: pLC50 (converted)): 43.7 µM
TGI (NCI-H460; read-out: pTGI (converted)): 7.59 µM
growth at 100 µM (M14): -77%
GI50 (NCI-H522 [3]; read-out: GI50): 2.46 µM
CC50 (NCI-H522 [3]; [19]): 29.4 µM
TGI (NCI-H522 [3]; read-out: TGI): 6.9 µM
GI50 (NCI-H522 [3]; read-out: pGI50 (converted)): 2.45 µM
CC50 (NCI-H522 [3]; [20]): 29.5 µM
TGI (NCI-H522 [3]; read-out: pTGI (converted)): 6.92 µM
growth at 0.01 µM (OVCAR-8 [4]): 95%
growth at 100 µM (T47D): -45%
GI50 (IGROV-1; read-out: GI50): 4.14 µM
CC50 (IGROV-1; [19]): 73.8 µM
TGI (IGROV-1; read-out: TGI): 14.4 µM
GI50 (IGROV-1; read-out: pGI50 (converted)): 4.17 µM
CC50 (IGROV-1; [20]): 74.1 µM
TGI (IGROV-1; read-out: pTGI (converted)): 14.5 µM
growth at 1 µM (HL-60(TB)): 112%
growth at 0.1 µM (OVCAR-8 [5]): 97%
growth at 0.1 µM (HT-29): 100%
growth at 1 µM (ACHN): 97%
growth at 100 µM (NCI-H522 [6]): -86%
growth at 0.01 µM (SNB-75 [7]): 89%
growth at 0.1 µM (SR): 100%
growth at 1 µM (MCF7 [8]): 95%
growth at 0.01 µM (KM12): 101%
growth at 1 µM (NCI-H226): 83%
growth at 0.1 µM (SN12C): 98%
growth at 0.1 µM (Malme-3M): 93%
growth at 100 µM (OVCAR-5): -97%
GI50 (SNB-19; read-out: GI50): 4.03 µM
CC50 (SNB-19; [19]): 44.5 µM
TGI (SNB-19; read-out: TGI): 16.5 µM
GI50 (SNB-19; read-out: pGI50 (converted)): 4.07 µM
CC50 (SNB-19; [20]): 44.7 µM
TGI (SNB-19; read-out: pTGI (converted)): 16.6 µM
growth at 0.1 µM (CAKI-1): 97%
growth at 0.01 µM (HCT-116 [9]): 100%
growth at 100 µM (RXF 393): -92%
growth at 100 µM [10]: -35%
growth at 100 µM (UO-31): -82%
growth at 1 µM (SK-OV-3 [11]): 96%
growth at 0.1 µM (SK-MEL-2): 91%
GI50 (UACC-62; read-out: GI50): 1.76 µM
CC50 (UACC-62; [19]): 7.84 µM
TGI (UACC-62; read-out: TGI): 3.71 µM
GI50 (UACC-62; read-out: pGI50 (converted)): 1.78 µM
CC50 (UACC-62; [20]): 7.76 µM
TGI (UACC-62; read-out: pTGI (converted)): 3.72 µM
growth at 0.1 µM (SNB-75 [12]): 89%
growth at 100 µM (OVCAR-8 [13]): -67%
growth at 1 µM (LOX IMVI [14]): 101%
growth at 100 µM (HCT-116 [15]): -55%
growth at 100 µM (K562): 1%
GI50 (OVCAR-8 [16]; read-out: GI50): 3.41 µM
CC50 (OVCAR-8 [16]; [19]): 60.8 µM
TGI (OVCAR-8 [16]; read-out: TGI): 14.2 µM
GI50 (OVCAR-8 [16]; read-out: pGI50 (converted)): 3.39 µM
CC50 (OVCAR-8 [16]; [20]): 60.3 µM
TGI (OVCAR-8 [16]; read-out: pTGI (converted)): 14.1 µM
growth at 100 µM (HOP-62): -57%
growth at 0.01 µM (LOX IMVI [17]): 97%
growth at 100 µM (MCF7 [18]): -68%
growth at 0.1 µM (CCRF-CEM): 102%
growth at 1 µM (MDA-MB-435): 95%
